Test results taken from patent publication US10995068B2, “Synthetic sphingolipid-like molecules, drugs, methods of their synthesis and methods of treatment” (The Regents of the University of California, priority 2015, dated 2021).
Where two headings read alike, the source gives them in different places.

How the values were obtained:
[1] = system: PC3 prostate cancer cells; assay: Cell Titer Glo proliferation assay in PC3; type: cell-based, human; conditions: for IC50: Cell Titer Glo, 72 h, Mean ± SEM, n ≥ 3, read-out: IC50 values in prostate cancer cell lines, PC3; for activity in the prostate cancer cell proliferation assay (in words): PC3 and DU145, Cell Titer Glo
Method in brief: (§1)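 Cells plated at 1,000 cells/well and left at least 24 h, then exposed to compound for 72 h. Permeabilised with 0.1% Triton-X100, lysed with Cell Titer-Glo reagent, luminescence read; IC50 from dose-response curves. PC3 grown in F12K with 10% FCS, DU145 in MEM with 10% FCS and pyruvate.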

[2] = system: DU145 prostate cancer cells; assay: Cell Titer Glo proliferation assay in DU145; type: cell-based, human; conditions: Mean ± SEM, n ≥ 3, read-out: IC50 values in prostate cancer cell lines, DU145
Method in brief: as §1

[3] = system: PC3 prostate cancer cells; assay: Cell viability by vital dye exclusion and flow cytometry in PC3; type: cell-based, human; conditions: vital dye exclusion (DAPI) and flow cytometry, 72 h
Protocol: Thus, to determine whether analogues in accordance with embodiments of the invention are cytotoxic, studies were conducted using vital dye exclusion and flow cytometry (Table 2).
(§2) Viability assays: Cell Titer Glo assays (Cell Titer Glo Luminescent Cell Viability Assay kit, cat #G7571, Promega Corporation) are performed in clear bottom 96-well black cell culture plates (cat #655090, Greiner Bio-One, NC, USA). After plating at 1,000 cells/well in volume of 100 μl, cells are left undisturbed for at least 24 h before drug addition. After 72 h, cells are prepared for analysis by adding 10 μl of 0.1% Triton-X100 in PBS with shaking for 1 min at room temperature (RT). Cell Titer-Glo cell lysis reagent (20 μl) is then added followed by 1 min of shaking and a 10 min incubation in the dark at RT. Luminescence is detected using an IVIS imaging system (IVIS Lumina II, Perkin Elmer, USA). […] IC50s are determined using GraphPad Prism (GraphPad Software, Inc, La Jolla, Calif.). SupB-15 viability was determined by flow cytometry. Cell Titer Glo assays were performed with the other cell lines.

[4] = system: Colon (SW-620) cancer cell line; assay: IC50 in cancer cell lines (Table 3), colon; type: cell-based, human; conditions: Mean ± SEM, n ≥ 3
Protocol: (§3) Having observed a suitable potency of some embodiments of the invention, including, at least with compounds 3-6, 14 in prostate cancer cell lines, other cancer cell lines were tested with these compounds. […] Compounds that were active in prostate cancer cell lines also killed BCR-Abl-positive leukemia cells with similar potency to FTY720.
(§4) Cell culture studies: Sup-B15 cells are maintained at 2-3 million/mL in RPMI 1640 (Mediatech) supplemented with 10% fetal calf serum (FCS, Sigma-Aldrich), 10 mM Hepes (Mediatech), 55 μM β-mercaptoethanol (Sigma-Aldrich), 2 mM L-glutamine (Mediatech), and antibiotics. All adherent cells are maintained at 70-80% confluence. Cell are cultured in the following media: PC3 & A549, Ham's F12K (Corning Cell Gro) supplemented with 10% FCS and antibiotics; DU145 cells, MEM (Corning Cell Gro) supplemented with 10% FCS, 1 mM sodium pyruvate (Mediatech), and antibiotics; SW620 & MDA-MB-231, DMEM (Corning Cell Gro) with 10% FCS, 1 mM sodium pyruvate (Mediatech), and antibiotics; Panc-1 cells, DMEM (Corning Cell Gro) supplemented with 10% FCS and antibiotics. All of the above cell lines are available from the ATCC.
as §2

[5] = system: Lung (A-549) cancer cell line; assay: IC50 in cancer cell lines (Table 3), lung; type: cell-based, human; conditions: Mean ± SEM, n ≥ 3
Protocol: as §3, §4, §2

[6] = system: Pancreas (PANC-1) cancer cell line; assay: IC50 in cancer cell lines (Table 3), pancreas; type: cell-based, human; conditions: Mean ± SEM, n ≥ 3
Protocol: as §3, §4, §2

[7] = system: Breast (MDA-MB-231) cancer cell line; assay: IC50 in cancer cell lines (Table 3), breast; type: cell-based, human; conditions: Mean ± SEM, n ≥ 3
Protocol: as §3, §4, §2

[8] = system: Leukemia (SupB-15) cells; assay: IC50 in cancer cell lines (Table 3), leukemia; type: cell-based, human; conditions: flow cytometry, Mean ± SEM, n ≥ 3
Protocol: as §3, §4, §2

[9] = Lymphocyte sequestration in mice; type: in vivo, C57BL6 mice; conditions: 10 mg/kg intraperitoneally, blood after 12 h, compared to saline
Description: In more exemplary embodiments, compounds 5 and 5-P were further examined for their ability to activate multiple S1P receptors in vivo. In particular, mouse heart rate and lymphocyte sequestration were examined. Mouse heart rate decreases causing bradycardia when S1P receptor 3 is activated while in humans this effect may be mediated by S1P receptor 1. In both mice and humans, lymphocytes are sequestered when the S1P receptor 1 is activated.
Lymphocyte sequestration: Female 8-24 week old C57BL6 mice are injected intraperitoneally with vehicle (0.9% saline or 20% acidified DMSO in 0.9% saline), 10 mg/kg FTY720, FTY720-phosphate, 5, or 5-P. After 12 h, blood is collected from the retro-orbital sinus under ketamine/xylazine anesthesia. 10 μL of whole blood is added to 190 μL of ACK red blood cell lysis buffer, incubated at room temperature for 3-5 minutes […], and the white blood cells recovered by centrifugation. Nucleated cells (Hoechst33342 positive) are counted using a hemocytometer to obtain the white blood cell count. Separately, 50 μL of whole blood is added to 1 mL of ACK red blood cell lysis buffer and incubated for 3-5 minutes at room temperature. Cells are washed with FACS wash (2% FCS in PBS with 0.05% NaN3) and red blood cell lysis repeated. Tubes are decanted and resuspended in 100 μL of FACS block (10% FCS in PBS with 0.05% NaN3) with directly conjugated antibodies recognizing B220, CD4, or CD8 (all from Biolegend, San Diego) for 30 min on ice. Cells are analyzed on a BD LSR II flow cytometer; the analysis is restricted to live cells (DAPI negative). These experiments are performed in accordance with all national or local guidelines and regulations and are approved by the UCI Institutional Animal Care and Use Committee.

Row | Compound | IC50 ([1]; Homo sapiens) [µM] | activity in the prostate cancer cell proliferation assay (in words) [1] | IC50 ([2]; Homo sapiens, DU-145, 72 h) [µM] | IC50 ([3]; Homo sapiens) [µM] | IC50 ([4]; Homo sapiens, SW-620) [µM] | IC50 ([5]; Homo sapiens, A549) [µM] | IC50 ([6]; Homo sapiens, PANC-1) [µM] | IC50 ([7]; Homo sapiens, MDA-MB-231) [µM] | IC50 ([8]; Homo sapiens, SUP-B15) [µM] | lymphocyte sequestration [9] | IC50 [1] [µM] | IC50 ([2]; 72 h) [µM] | IC50 [3] [µM] | IC50 [4] [µM] | IC50 [5] [µM] | IC50 [6] [µM] | IC50 [7] [µM] | IC50 [8] [µM]
1 | CCCCCCCCc1ccc([C@H]2CCN[C@@H]2CO)cc1.Cl [Compound 5, (2S,3R)-2-(hydroxymethyl)-3-(4-octylphenyl)Pyrrolidinium chloride] | 4 ± 0.7 | as active as FTY720 | 3.8 ± 0.4 | 5.5 ± 0.4 | 2.5 ± 0.1 | 8.9 ± 1.4 | 3.3 ± 0.5 | 2.1 ± 0.2 | 5.1 ± 0.9 | no significant effect |  |  |  |  |  |  |  | 
2 | CCCCCCCCc1ccc(CCC(N)(CO)CO)cc1.Cl [FTY720, 2-Amino-2-[2-(4-octylphenyl)ethyl]propane 1,3-diol hydrochloride, reference compound] | 2.6 ± 0.2 |  | 3.1 ± 0.2 | 4.8 ± 0.1 | 2.8 ± 0.1 | 6 ± 0.4 | 4.6 ± 0.5 | 4 ± 0.1 | 6.8 ± 0.7 | significantly sequestered lymphocytes |  |  |  |  |  |  |  | 
3 | CCCCCCCCc1ccc([C@@H]2CCN[C@H]2CO)cc1.Cl [Compound 6] |  | as active as FTY720 |  |  |  |  |  |  |  |  | 3 ± 0.4 | 3.7 ± 0.4 | 5.4 ± 0.6 | 2.1 ± 0.2 | 8.4 ± 1.2 | 5 ± 0.9 | 4.9 ± 0.6 | 5.9 ± 0.1
